Measured values from ChEMBL document CHEMBL1133225.
Active and inactive are the calls of the source. The rule behind the calls is not given here.

Experiments:
[1] = target: Acetylcholinesterase (Electrophorus electricus) (UniProt O42275); test: Compound was tested against electric eel Acetylcholinesterase; Inactive
[2] = target: T1, Acetylcholinesterase (Mus musculus) (UniProt P21836); test: Compound was tested against recombinant mouse Acetylcholinesterase; 5-40 uM, Modest inhibition
T1 sequence (whole entry): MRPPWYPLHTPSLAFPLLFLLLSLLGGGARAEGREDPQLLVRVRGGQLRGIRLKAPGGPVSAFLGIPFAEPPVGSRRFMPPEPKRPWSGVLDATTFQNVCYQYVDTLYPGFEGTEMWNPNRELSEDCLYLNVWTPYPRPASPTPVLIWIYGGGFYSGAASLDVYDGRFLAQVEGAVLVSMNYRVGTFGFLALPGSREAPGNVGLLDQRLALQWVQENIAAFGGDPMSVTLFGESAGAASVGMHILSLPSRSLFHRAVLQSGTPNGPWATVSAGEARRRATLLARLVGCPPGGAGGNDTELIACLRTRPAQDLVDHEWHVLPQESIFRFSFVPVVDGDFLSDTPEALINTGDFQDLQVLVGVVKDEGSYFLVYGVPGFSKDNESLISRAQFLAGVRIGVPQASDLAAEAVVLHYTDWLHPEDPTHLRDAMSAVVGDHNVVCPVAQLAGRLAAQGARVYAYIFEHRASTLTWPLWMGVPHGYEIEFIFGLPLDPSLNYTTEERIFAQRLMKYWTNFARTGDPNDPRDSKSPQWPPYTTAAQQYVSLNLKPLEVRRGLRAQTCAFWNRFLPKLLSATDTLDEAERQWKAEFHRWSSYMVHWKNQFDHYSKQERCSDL

Acetylcholinesterase (Electrophorus electricus), sequence (O42275 24-633 limits assumed): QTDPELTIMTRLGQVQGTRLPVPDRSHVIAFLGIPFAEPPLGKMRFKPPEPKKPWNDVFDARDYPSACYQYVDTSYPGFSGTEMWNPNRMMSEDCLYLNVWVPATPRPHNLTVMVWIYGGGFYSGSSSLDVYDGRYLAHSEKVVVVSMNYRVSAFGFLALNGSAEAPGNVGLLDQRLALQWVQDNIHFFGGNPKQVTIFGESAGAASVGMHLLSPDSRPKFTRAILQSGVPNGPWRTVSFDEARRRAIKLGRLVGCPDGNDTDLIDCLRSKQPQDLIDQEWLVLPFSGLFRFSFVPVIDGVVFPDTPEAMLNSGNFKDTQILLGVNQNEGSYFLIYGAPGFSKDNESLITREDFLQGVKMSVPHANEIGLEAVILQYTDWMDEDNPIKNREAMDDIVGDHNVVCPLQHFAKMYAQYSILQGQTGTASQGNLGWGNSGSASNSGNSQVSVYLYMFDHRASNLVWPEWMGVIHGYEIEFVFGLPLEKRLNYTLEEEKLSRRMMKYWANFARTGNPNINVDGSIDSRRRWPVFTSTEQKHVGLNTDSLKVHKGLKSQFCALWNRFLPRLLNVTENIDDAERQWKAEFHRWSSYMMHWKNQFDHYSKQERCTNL

COP(=O)(CC(=O)N[C@@H](CCCCNS(=O)(=O)c1ccc2ccc3cccc4ccc1c2c34)C(N)=O)OC
Activity [1]: inactive
Concentration [2]: 40 µM

COP(=O)(CC(=O)N[C@@H](CCCCNS(=O)(=O)c1ccc2ccc3cccc4ccc1c2c34)C(N)=O)SC (some centres undefined)
Activity [1]: inactive
Concentration [2]: 40 µM
